Experimental data as given in doi:10.1101/2025.09.30.679521v1, “Crystallographic characterisation and development of bi-substrate inhibitors of coronavirus nsp14 methyltransferase” (biorxiv, 2025).
Read-outs that look alike come from different tables or passages of the source.

Key:
[1] = in vitro; set-up: mouse liver microsomal stability; details: liver microsomes; Mouse liver microsomes; read-out: Mouse liver Mic T1/2 / min
Description: We initiated our structure-activity relationship (SAR) studies by investigating various replacements for the benzothiazole group, compounds 2-17, Table 1. […] Relatively flat SAR is observed across this subset of compounds, indeed a 6,5 or 6,6 aromatic system with the appropriate connectivity as compound 1 display relatively similar potencies. […] In general, the mouse microsomal clearance was rather low for this set of molecules, with no significant instabilities introduced, with perhaps the exception of compound 4. With no significant advantages in either potency or mouse microsomal clearance (Table S2) identified for this subset, the benzothiazole was taken forward into subsequent SAR studies. Table 2. Enzymatic inhibition against SARS-CoV-2 nsp14, human RNMT, CHI-logD and mouse microsomal stability.

[2] = molecular target: human RNMT (Homo sapiens, UniProt O43148); assay: RNMT methyltransferase assay (Gray et al.); format: biochemical
Description: RNMT methyltransferase assay (Gray et al.) on human RNMT

[3] = physchem
[4] = molecular target: T1, HCoV-229E nsp14 (Human coronavirus 229E, UniProt P0C6X1); assay: RapidFire MS methyltransferase assay; format: biochemical
T1 construct: gene rep
Description: RapidFire MS methyltransferase assay on HCoV-229E nsp14

[5] = molecular target: HCoV-NL63 nsp14 (Human coronavirus NL63, UniProt P0C6X5); assay: RapidFire MS methyltransferase assay; format: biochemical
Description: RapidFire MS methyltransferase assay on HCoV-NL63 nsp14

[6] = molecular target: T2, SARS-CoV-2 nsp14 (Severe acute respiratory syndrome coronavirus 2, UniProt P0DTD1); assay: RapidFire MS methyltransferase assay; format: biochemical
T2 construct: gene rep
Description: RapidFire MS methyltransferase assay on SARS-CoV-2 nsp14

[7] = physchem; remark: listed apart in the source

Sequence of human RNMT (O43148 whole entry): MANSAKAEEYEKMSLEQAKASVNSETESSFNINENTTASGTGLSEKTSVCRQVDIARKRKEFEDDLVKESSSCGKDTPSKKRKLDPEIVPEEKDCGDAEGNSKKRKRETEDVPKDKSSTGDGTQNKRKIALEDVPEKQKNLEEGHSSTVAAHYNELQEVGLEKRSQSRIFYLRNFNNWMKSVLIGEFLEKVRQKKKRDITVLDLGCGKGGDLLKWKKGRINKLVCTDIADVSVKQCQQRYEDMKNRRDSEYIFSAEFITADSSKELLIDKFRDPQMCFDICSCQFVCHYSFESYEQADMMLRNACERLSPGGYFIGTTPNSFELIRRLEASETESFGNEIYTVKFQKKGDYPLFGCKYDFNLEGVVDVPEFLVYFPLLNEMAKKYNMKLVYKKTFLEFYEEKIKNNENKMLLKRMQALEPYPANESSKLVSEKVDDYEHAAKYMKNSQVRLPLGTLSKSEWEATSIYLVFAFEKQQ
Sequence of HCoV-NL63 nsp14 (P0C6X5 5568-6085): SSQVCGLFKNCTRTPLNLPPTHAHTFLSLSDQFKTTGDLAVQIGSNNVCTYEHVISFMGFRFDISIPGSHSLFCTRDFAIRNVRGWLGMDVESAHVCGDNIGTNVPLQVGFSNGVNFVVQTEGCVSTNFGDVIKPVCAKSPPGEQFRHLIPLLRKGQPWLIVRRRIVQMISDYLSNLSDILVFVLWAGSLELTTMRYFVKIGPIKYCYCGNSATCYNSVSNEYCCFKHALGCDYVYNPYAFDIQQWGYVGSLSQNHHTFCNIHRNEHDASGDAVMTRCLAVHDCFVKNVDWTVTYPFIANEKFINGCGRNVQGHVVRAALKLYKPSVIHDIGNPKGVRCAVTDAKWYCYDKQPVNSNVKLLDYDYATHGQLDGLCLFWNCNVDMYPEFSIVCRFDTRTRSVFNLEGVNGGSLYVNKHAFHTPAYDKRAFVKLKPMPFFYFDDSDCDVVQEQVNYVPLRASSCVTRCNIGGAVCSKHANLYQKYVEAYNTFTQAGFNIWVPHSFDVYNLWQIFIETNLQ
T1 sequence (P0C6X1 5593-6110): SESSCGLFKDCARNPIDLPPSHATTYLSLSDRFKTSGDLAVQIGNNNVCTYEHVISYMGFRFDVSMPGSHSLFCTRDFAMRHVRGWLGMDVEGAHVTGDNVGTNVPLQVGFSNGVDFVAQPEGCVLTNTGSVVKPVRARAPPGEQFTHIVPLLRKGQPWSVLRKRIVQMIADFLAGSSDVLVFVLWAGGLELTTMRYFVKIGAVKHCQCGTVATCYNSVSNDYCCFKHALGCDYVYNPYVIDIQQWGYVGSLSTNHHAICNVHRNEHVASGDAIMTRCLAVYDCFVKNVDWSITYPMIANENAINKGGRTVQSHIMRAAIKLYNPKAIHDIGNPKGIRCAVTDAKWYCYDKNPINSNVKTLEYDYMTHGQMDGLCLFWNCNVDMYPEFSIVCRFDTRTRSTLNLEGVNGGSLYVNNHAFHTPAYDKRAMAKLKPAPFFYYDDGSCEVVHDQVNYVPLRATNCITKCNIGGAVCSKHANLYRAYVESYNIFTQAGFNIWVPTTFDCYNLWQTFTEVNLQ

Nc1ncnc2c1ncn2[C@@H]1O[C@H](CSc2nc3ccccc3[nH]2)[C@@H](O)[C@H]1O [compound 15, (2S,3S,4R,5R)-2-(((1H-Benzo[d]imidazol-2-yl)thio)methyl)-5-(6-amino-9H-purin-9-yl) tetrahydrofuran-3,4-diol]
half-life [1]: > 30 min

Cc1ccc2nc(SC[C@H]3O[C@@H](n4cnc5c(N)ncnc54)[C@H](O)[C@@H]3O)sc2c1 [compound 2]
IC50 [2]: > 100000 nM | half-life [1]: > 30 min | logD [3]: 1.6 | IC50 [4]: 410 ± 80 nM | IC50 [5]: 110 ± 20 nM | IC50 [6]: 260 ± 70 nM

CCNC(=O)NCCSC[C@H]1O[C@@H](n2cnc3c(N)ncnc32)[C@H](O)[C@@H]1O [compound 5]
IC50 [2]: > 100000 nM | half-life [1]: > 30 min | logD [3]: -0.2 | IC50 ([6]; read-out: IC50): 1900 ± 300 nM

CCc1cn([C@@H]2O[C@H](CSc3nc4ccccc4s3)[C@@H](O)[C@H]2O)c2ncnc(N)c12 [compound 31, (2R,3R,4S,5S)-2-(4-amino-5-ethyl-pyrrolo[2,3-d]pyrimidin-7-yl) -5-(1,3-benzothiazol-2-ylsulfanylmethyl)tetrahydrofuran-3,4-diol]
half-life [1]: 3.9 min

Nc1ncnc2c1ncn2[C@@H]1O[C@H](CSc2nccs2)[C@@H](O)[C@H]1O [compound 11, (2R,3R,4S,5S)-2-(6-Aminopurin-9-yl)-5-(thiazol-2-ylsulfanylmethyl) tetrahydrofuran-3,4-diol]
half-life [1]: > 30 min

Nc1ncnc2c1ncn2[C@@H]1O[C@H](CSc2cccn3cncc23)[C@@H](O)[C@H]1O [compound 12]
IC50 [2]: 9300 nM | logD [3]: 0.3 | IC50 ([4]; read-out: IC50): 790 ± 60 nM | IC50 ([5]; read-out: IC50): 9500 ± 2300 nM | IC50 ([6]; read-out: IC50): 15000 ± 12000 nM

Cc1ccc2ccc(SC[C@H]3O[C@@H](n4cnc5c(N)ncnc54)[C@H](O)[C@@H]3O)nc2c1 [compound 9]
IC50 [2]: 70500 nM | half-life [1]: > 30 min | logD [3]: 1.7 | IC50 [4]: 1400 ± 100 nM | IC50 [5]: 500 ± 110 nM | IC50 [6]: 390 ± 60 nM

Nc1ncnc2c1ncn2[C@@H]1O[C@H](CSc2ccn3cncc3c2)[C@@H](O)[C@H]1O [compound 17, (2R,3R,4S,5S)-2-(6-Aminopurin-9-yl)-5-(imidazo[1,5-a]pyridine-7-ylsulfanylmethyl) tetrahydrofuran-3,4-diol]
half-life [1]: 11.1 min

Nc1ncnc2c1ncn2[C@@H]1O[C@H](CSc2nc3ccccc3o2)[C@@H](O)[C@H]1O [compound 14, (2R,3R,4S,5S)-2-(6-Amino-9H-purin-9-yl)-5-((benzo[d]oxazol-2-ylthio)methyl) tetrahydrofuran-3,4-diol]
half-life [1]: > 30 min

Nc1ncnn2c([C@@H]3O[C@H](CSc4nc5ccccc5s4)[C@@H](O)[C@H]3O)ccc12 [compound 35]
IC50 ([4]; read-out: IC50): 190 ± 40 nM | logD [7]: 1.5 | IC50 ([5]; read-out: IC50): 100 ± 20 nM | IC50 ([6]; read-out: IC50): 370 ± 130 nM

Nc1ncnn2c([C@@H]3O[C@H](CSc4ccc5ccccc5c4)[C@@H](O)[C@H]3O)ccc12 [compound 37]
logD [7]: 2.2 | IC50 ([6]; read-out: IC50): 200 ± 70 nM

Cc1ccc2nc(SC[C@H]3O[C@@H](c4ccc5c(N)ncnn45)[C@H](O)[C@@H]3O)sc2c1 [compound 36, (2S,3R,4S,5S)-2-(4-Aminopyrrolo[2,1-f][1,2,4]triazin-7-yl)-5-[(6-methyl-1,3-benzothiazol-2-yl)sulfanylmethyl]tetrahydrofuran-3,4-diol]
half-life [1]: 18 min

Cc1ccc2sc(SC[C@H]3O[C@@H](n4cnc5c(N)ncnc54)[C@H](O)[C@@H]3O)nc2c1 [compound 3]
IC50 [2]: > 100000 nM | half-life [1]: 25.7 min | logD [3]: 1.6 | IC50 [6]: 1200 ± 150 nM

Nc1ncnc2c1ccn2[C@@H]1C[C@H](CSc2nc3ccccc3s2)[C@@H](O)[C@H]1O [compound 28]
half-life [1]: > 30 min | logD [7]: 1.8

Nc1ncnn2c([C@@H]3O[C@H](CCc4nc5ccccc5s4)[C@@H](O)[C@H]3O)ccc12 [compound 39, (2S,3R,4S,5R)-2-(4-Aminopyrrolo[2,1-f][1,2,4]triazin-7-yl)-5-[2-(1,3-benzothiazol-2-yl)ethyl]tetrahydrofuran-3,4-diol]
half-life [1]: > 30 min

C#Cc1cn([C@@H]2O[C@H](CSc3nc4ccccc4s3)[C@@H](O)[C@H]2O)c2ncnc(N)c12 [compound 30]
IC50 [2]: > 100000 nM | half-life [1]: 10.1 min | IC50 [4]: 33 ± 2 nM | logD [7]: 2 | IC50 [5]: 29 ± 9 nM | IC50 [6]: 54 ± 10 nM

N#Cc1cn([C@@H]2O[C@H](CSc3nc4ccccc4s3)[C@@H](O)[C@H]2O)c2ncnc(N)c12 [compound 29]
IC50 [2]: > 100000 nM | half-life [1]: 12.1 min | IC50 [4]: 100 ± 7 nM | logD [7]: 1.8 | IC50 [5]: 73 ± 26 nM | IC50 [6]: 170 ± 20 nM

Nc1ncnc2c1ncn2[C@@H]1O[C@H](CSc2ccc3ccccc3n2)[C@@H](O)[C@H]1O [compound 7]
IC50 [2]: > 100000 nM | half-life [1]: > 30 min | logD [3]: 1.3 | IC50 ([4]; read-out: IC50): 550 ± 80 nM | IC50 ([5]; read-out: IC50): 240 ± 80 nM | IC50 ([6]; read-out: IC50): 330 ± 90 nM

Nc1ncnc2c1ncn2[C@@H]1O[C@H](CSc2cccc3cn[nH]c23)[C@@H](O)[C@H]1O [compound 16]
IC50 [2]: > 100000 nM | logD [7]: 0.7 | IC50 ([6]; SAM and RNA cap substrate at KM (SAM 1.0 µM), unreliable (footnote: one IC50 measured > 100 µM)): 79000 ± 18000 nM

Nc1ncnc2c1ncn2[C@@H]1O[C@H](CSc2nc3ccccc3[nH]2)[C@@H](O)[C@H]1O [compound 15]
IC50 [2]: > 100000 nM | IC50 ([4]; read-out: IC50): 860 ± 200 nM | logD [7]: 0.3 | IC50 ([5]; read-out: IC50): 480 ± 100 nM | IC50 ([6]; read-out: IC50): 590 ± 110 nM

CCCCCCSC[C@H]1O[C@@H](n2cnc3c(N)ncnc32)[C@H](O)[C@@H]1O [compound 4]
IC50 [2]: > 100000 nM | half-life [1]: 13.2 min | logD [3]: 2 | IC50 [4]: 9000 ± 1400 nM | IC50 [5]: 3300 ± 300 nM | IC50 [6]: 6100 ± 1100 nM

Cc1ccc2nc(SC[C@H]3O[C@@H](n4cnc5c(N)ncnc54)[C@H](O)[C@@H]3O)ccc2c1 [compound 8]
IC50 [2]: > 100000 nM | half-life [1]: > 30 min | logD [3]: 1.7 | IC50 [4]: 1900 ± 100 nM | IC50 [5]: 520 ± 10 nM | IC50 [6]: 1100 ± 70 nM

Nc1ncnc2c1ccn2[C@@H]1O[C@H](CSc2nc3ccccc3s2)[C@@H](O)[C@H]1O [compound 27]
IC50 [2]: > 100000 nM | half-life [1]: > 30 min | IC50 ([4]; read-out: IC50): 41 ± 4 nM | logD [7]: 1.6 | IC50 ([5]; read-out: IC50): 39 ± 6 nM | IC50 ([6]; read-out: IC50): 55 ± 20 nM

CCc1cn([C@@H]2O[C@H](CSc3nc4ccccc4s3)[C@@H](O)[C@H]2O)c2ncnc(N)c12 [compound 31]
IC50 [2]: > 100000 nM | IC50 ([4]; read-out: IC50): 120 ± 10 nM | logD [7]: 2.1 | IC50 ([5]; read-out: IC50): 52 ± 9 nM | IC50 ([6]; read-out: IC50): 250 ± 200 nM

Nc1ncnn2c([C@@H]3O[C@H](CSc4ccc5ccccc5c4)[C@@H](O)[C@H]3O)ccc12 [compound 37, (2S,3R,4S,5S)-2-(4-Aminopyrrolo[2,1-f][1,2,4]triazin-7-yl)-5-(2-naphthylsulfanylmethyl) tetrahydrofuran-3,4-diol]
half-life [1]: 13.6 min

Nc1ncnn2c([C@@H]3O[C@H](CSc4ccc5ccccc5n4)[C@@H](O)[C@H]3O)ccc12 [compound 38, (2S,3R,4S,5S)-2-(4-Aminopyrrolo[2,1-f][1,2,4]triazin-7-yl)-5-(2-quinolylsulfanylmethyl) tetrahydrofuran-3,4-diol]
half-life [1]: > 30 min

Nc1ncnn2c([C@@H]3O[C@H](CCc4nc5ccccc5s4)[C@@H](O)[C@H]3O)ccc12 [compound 39]
IC50 ([4]; read-out: IC50): 2300 ± 50 nM | logD [7]: 1.3 | IC50 ([5]; read-out: IC50): 760 ± 300 nM | IC50 ([6]; read-out: IC50): 500 ± 400 nM

Nc1ncnc2c1ncn2[C@@H]1O[C@H](CSc2nccs2)[C@@H](O)[C@H]1O [compound 11]
IC50 [2]: > 100000 nM | logD [3]: 0.3 | IC50 ([4]; read-out: IC50): > 50000 nM | IC50 ([5]; read-out: IC50): > 50000 nM | IC50 ([6]; read-out: IC50): > 100000 nM

Nc1ncnn2c([C@@H]3O[C@H](CSc4ccc5ccccc5n4)[C@@H](O)[C@H]3O)ccc12 [compound 38]
logD [7]: 1.7 | IC50 ([6]; read-out: IC50): 680 ± 110 nM

Cc1ccc2nc(SC[C@H]3O[C@@H](c4ccc5c(N)ncnn45)[C@H](O)[C@@H]3O)sc2c1 [compound 36]
logD [7]: 1.9 | IC50 ([6]; read-out: IC50): 340 ± 140 nM

Nc1ncnc2c1ncn2[C@@H]1O[C@H](CSc2ccn3cncc3c2)[C@@H](O)[C@H]1O [compound 17]
IC50 [2]: 31100 nM | IC50 ([4]; read-out: IC50): 1100 ± 150 nM | logD [7]: 0.1 | IC50 ([5]; read-out: IC50): 6400 ± 1600 nM | IC50 ([6]; read-out: IC50): 6900 ± 4600 nM

CNc1ncnc2c1ncn2[C@@H]1O[C@H](CSc2nc3ccccc3s2)[C@@H](O)[C@H]1O [compound 18, (2S,3S,4R,5R)-2-(1,3-Benzothiazol-2-ylsulfanylmethyl)-5-[6-(methylamino)purin-9-yl]tetrahydrofuran-3,4-diol]
half-life [1]: 19.7 min

Nc1ncnc2c1ncn2[C@@H]1O[C@H](CSc2nc3ccccc3o2)[C@@H](O)[C@H]1O [compound 14]
IC50 [2]: > 100000 nM | IC50 ([4]; read-out: IC50): 950 ± 20 nM | logD [7]: 1 | IC50 ([5]; read-out: IC50): 660 ± 400 nM | IC50 ([6]; read-out: IC50): 670 ± 20 nM

Nc1ncnn2c([C@@H]3O[C@H](CSc4nc5ccccc5s4)[C@@H](O)[C@H]3O)ccc12 [compound 35, (2S,3R,4S,5S)-2-(4-Aminopyrrolo[2,1-f][1,2,4]triazin-7-yl)-5-(1,3-benzothiazol-2-ylsulfanylmethyl)tetrahydrofuran-3,4-diol]
half-life [1]: > 30 min
